Where a name gives a salt, the structure may show the parent alone. Read-outs that look alike come from different tables or passages of the source.
Experiments:
Jurkat clone E6.1 cells = assay: Antigen-induced calcium flux in anti-CD3 stimulated Jurkat cells (Fura 2AM); assay type: cell-based; settings: anti-CD3 mAb stimulated Jurkat clone E6.1 cells; for inhibition at 20 µM: Homo sapiens
Excerpt: Elevation of cytoplasmic calcium concentration is a common and crucial event which follows the activation of many types of cell surface receptors. Increases in intracellular calcium that occur following agonist activation of inositol lipid hydrolysis are the results of calcium release from the endoplasmic reticulum and the influx of calcium through the plasma membrane. Increases in cytosolic calcium concentration are involved in many important cellular responses in the inflammatory process including adhesion, motility, gene expression, proliferation, and degranulation. Changes in intracellular calcium concentrations can affect both short and long term cellular responses. An assay method to evaluate a test compound's impact on calcium flux is provided as follows.
The resulting supernatants are discarded and each pellet is washed in 10 mL HBSS. Cell suspensions are accumulated and centrifuged for 5 minutes at 900 RPM to form a cell pellet. The resulting supernatant is discarded and the pellet is resuspended in HBSS at 1×10^7cells/mL. The cell suspension is transferred to a 20 mm petri dish and incubated at 37° C., 5% CO2 for 20 minutes.
One volume of Fura 2AM is mixed to one volume of detergent Pluronic F127. Cells are labeled with 4 μL of probe solution to each mL of cell suspension. The petri dish is wrapped in aluminum foil to protect from light and placed on a plate shaker for 30 minutes at room temperature.
The following steps are done in the laminar flow hood with the fluorescent lights turned off. The petri dish is removed from the shaker and the labeled cell suspension is transferred to a 15 mL conical tube and washed twice with HBSS as above. The cell pellet is resuspended in 12 mL HBSS and left wrapped in foil for 30 minutes at room temperature. The labeled cell suspension is aliquoted (100 μL/well) into a Dynex 96 well white opaque tissue culture plate. […] Selected compounds were tested for dose related activity. Test samples and activator (anti-CD3 mAb at final concentration of 4 μg/mL, PharMingen) are added manually (50 μL), such that the minimum time to acquire the first data point after stimulation is approximately 30 seconds. The calcium influx response to anti-CD3 mAb is measured as an “end point” assay. The entire plate is read in 100 seconds using a kinetic of 1 second per well.
The plate is read before the addition of anti-CD3 to monitor non-specific effect of samples/drugs. Fluorescence emission is measured at 510 nm with excitation alternating between 340 and 380 every second using an excitation/emission filter pair. Data from these dual wavelengths are represented as a ratio of 2 excitations wavelengths. This ratio is independent of intracellular dye and cell concentrations, enabling real comparison between experiments.

[1] = test system: sensitized Brown Norway rats; assay: Ovalbumin-induced accumulation of inflammatory cells in lung lavage fluid (allergen-induced lung inflammation); assay type: in vivo, rat; settings: p.o., corn oil, lung lavage fluid
Experimental: The ability of a compound to inhibit the allergen-induced accumulation of inflammatory cells such as eosinophils and neutrophils in the lavage fluid obtained from sensitized animals is indicative of that compound's anti-asthma activity. […] The test is conducted as follows.
Male Brown Norway rats are sensitized to ovalbumin by single intraperitoneal injection of 1 mg ovalbumin adsorbed to 100 mg […] (alum) in 1 ml sterile saline (saline control rats receive only sterile saline) on day 1, and allowed to sensitize until day 21. […] Rats are challenged with 0.5% ovalbumin in saline generated using a Devillbis nebulizer for 60 min on day 21.
Forty-eight hrs after challenge, animals are sacrificed with an overdose of intraperitoneally-delivered sodium pentobarbitol and the lungs are lavaged with cold 2×7 ml phosphate buffered saline. The recovered lavage fluid is placed on ice. The bronchoalveolar lavage fluid is centrifuged and the supernatant removed. The pellet is resuspended in phosphate buffered saline at 4° C. Cytospins are prepared and stained for differentiation and enumeration of cell types.
Test compound was administered in 300 μl corn oil (Tables 7 and 8) or water (Table 9), which were used as vehicles. Control animals received 300 μl corn oil or water alone, i.e., no drug. […] A negative value in Table 7, 8, or 9 indicates an exacerbation of the effect over the control animal.

[2] = test system: Rat Mast Cell Line (RBL-2H3); assay: Antigen-induced release of hexosaminidase from a rat mast cell line (RBL-2H3); assay type: cell-based; settings: tested at 0.3, 3, 10 and 30 μM, read-out: Hex IC50
Experimental: The anti-allergic effects of a compound of the present invention was evaluated by measuring its effect on antigen-induced secretion of hexosaminidase from a passively sensitized rat mast cell line. The ability of a test compound to inhibit the release of mast cell granule contents, e.g., histamine and hexosaminidase, is indicative of the anti-allergy and/or anti-asthma activity of the compound. Hexosaminidase is released from the mast cell granule along with histamine and other mediators during antigen challenge. The test is performed as follows.
RBL-2H3 cells are grown in culture and passively sensitized for 1 hour at 37° C. to dinitrophenol (DNP) using anti-human-DNP (IgE). Cells are incubated with test compound for 30 minutes at 37° C. and stimulated with 0.5 μg/ml DNP-HSA (antigen) for 30 minutes. Aliquots of the supernatant are removed and used to measure the amount of hexosaminidase released during challenge with the antigen. The amount of hexosaminidase present in the supernatant is determined colorimetrically by monitoring the enzymatic metabolism of p-nitrophenyl-N-acetyl-β-D-glucosaminide (p-NAG) over a period of 60 minutes at 405 nm. The effect of each test compound is determined as a percentage of the antigen-induced response (minus background release) obtained in the presence of DMSO alone. These values are used to determine the degrees of inhibition of antigen-induced hexosaminidase release from the cells.

[3] = 5 mg/kg/day for 4 days, relative to control animals
[4] = Rattus norvegicus, RBL-2H3, inhibition of antigen (DNP-HSA)-induced hexosaminidase release
[5] = Jurkat, read-out: Calcium (% inhibition at 20 μM), 20 μM

## CCC1(C)CCC2=C1CCC1C2C(O)C(O)C2CC(Nc3ccccc3)CCC21C.Cl (mixture of isomers) [Compound 144]
Jurkat clone E6.1 cells; 20 μM
  Calcium (% inhibition at 20 μM): 13.0%

## CCC1(C)CCC2=C1CCC1C2C(O)C(O)C2CC(Nc3cccc(C(F)(F)F)c3)CCC21C.Cl (mixture of isomers) [Compound 145]
Jurkat clone E6.1 cells; 20 μM
  Calcium (% inhibition at 20 μM): −0.2%

## CC=C1CCC2C3C(CC[C@]12C)[C@@]1(C)CCC(N)CC1[C@@H](O)[C@@H]3O (some centres unmarked) [Compound 49]
[1]; [3]
  % inhibition of eosinophils: 52%

## C=C1CCC2C3C(CC[C@]12C)[C@@]1(C)CCC(N)CC1[C@@H](O)[C@@H]3O (some centres unmarked) [Compound 53]
[1]; [3]
  % inhibition of eosinophils: 24%

## C=C1CCC2C3C(CC[C@]12C)[C@@]1(C)CCC(N)CC1[C@@H](O)[C@@H]3O (some centres unmarked) [Compound 54]
[2]; [4]
  IC50: 16.1 µM

## CC(F)=C1CCC2C3C(CC[C@]12C)[C@@]1(C)CCC(N)CC1[C@@H](O)[C@@H]3O (some centres unmarked) [Compound 64]
[2]; [4]
  IC50: 14.4 µM
Jurkat clone E6.1 cells; [5]
  inhibition at 20 µM: 6.7%
[1]; [3]
  % inhibition of eosinophils: 62%

## COC(=O)C=C1CCC2C3C(CC[C@]12C)[C@@]1(C)CCC(N)CC1[C@@H](O)[C@@H]3O (some centres unmarked) [Compound 69]
[2]; [4]
  IC50: 21.2 µM
Jurkat clone E6.1 cells; [5]
  inhibition at 20 µM: 11.2%

## C[C@]12CC[C@@H](N)CC1[C@@H](O)[C@H](O)[C@@H]1[C@@H]2CC[C@]2(C)C(=O)CC[C@@H]12 (stereo partly drawn) [Compound 70, 3α-amino-6α,7β-dihydroxyandrostan-17-one acetic acid salt]
Jurkat clone E6.1 cells; read-out: Calcium (% inhibition at 20 μM), 20 μM
  inhibition at 20 µM: 7%

## C[C@]12CCC3C(C1CCC2O)[C@@H](O)[C@H](O)C1CC(N)CC[C@]31C (some centres unmarked) [Compound 72]
Jurkat clone E6.1 cells; [5]
  inhibition at 20 µM: 10.3%

## C=C1CCC2C3C(CC[C@]12C)[C@@]1(C)CCC(N)CC1[C@@H](OC)[C@@H]3OC (some centres unmarked) [Compound 78]
[2]; [4]
  IC50: 20.1 µM
Jurkat clone E6.1 cells; [5]
  inhibition at 20 µM: 5.3%

## CC(F)=C1CCC2C3C(CC[C@]12C)[C@@]1(C)CCC(N)CC1[C@@H](O)[C@@H]3O (some centres unmarked) [Compound 95]
[1]; [3]
  % inhibition of eosinophils: 14%

## CCC1CCC2C3C(CC[C@]12C)[C@@]1(C)CCC(N)CC1[C@@H](O)[C@@H]3O (some centres unmarked) [Compound 96]
[2]; [4]
  IC50: 7.8 µM
Jurkat clone E6.1 cells; [5]
  inhibition at 20 µM: 47.9%
[1]; [3]
  % inhibition of eosinophils: −9%

## CCC1CCC2C3C(CC[C@]12C)[C@@]1(C)CCC(N)CC1[C@@H](O)[C@@H]3O (some centres unmarked) [Compound 97]
[1]; [3]
  % inhibition of eosinophils: 40%

## C=C1CCC2C3C(CC[C@]12C)[C@@]1(C)CC[C@@H](NCc2ccc(C(C)C)cc2)CC1[C@@H](O)[C@@H]3O (some centres unmarked) [Compound 100]
[2]; [4]
  IC50: 18.2 µM
Jurkat clone E6.1 cells; [5]
  inhibition at 20 µM: 33.2%

## C=C1CCC2C3C(O)C(O)C4CC(NCc5cccc(C(F)(F)F)c5)CCC4(C)C3CCC12C.CC(=O)O (centres unmarked) [Compound 102]
Jurkat clone E6.1 cells; 20 μM
  Calcium (% inhibition at 20 μM): 9.5%

## C=C1CCC2C3C(O)C(O)C4CC(NCc5cccc([N+](=O)[O-])c5)CCC4(C)C3CCC12C (centres unmarked) [Compound 106]
Jurkat clone E6.1 cells; 20 μM
  Calcium (% inhibition at 20 μM): 8.1%

## C=C1CCC2C3C(O)C(O)C4CC(NCc5cccnc5)CCC4(C)C3CCC12C.Cl.Cl (centres unmarked) [Compound 107]
[1]; 1 mg/kg/day for 4 days
  % inhibition of lymphocytes: −28%
  % inhibition of neutrophils: 23%

## C/C=C1/CCC2C3C(CC[C@]12C)[C@@]1(C)CCC(N2CCCCC2)CC1[C@@H](O)[C@@H]3O (some centres unmarked) [Compound 110]
[2]; [4]
  IC50: 10.9 µM
Jurkat clone E6.1 cells; [5]
  inhibition at 20 µM: 39.7%

## C/C=C1/CCC2C3C(CC[C@]12C)[C@@]1(C)CCC(NC)CC1[C@@H](O)[C@@H]3O (some centres unmarked) [Compound 113]
[2]; [4]
  IC50: 9.8 µM
Jurkat clone E6.1 cells; [5]
  inhibition at 20 µM: 45%

## CC=C1CCC2C3C(O)C(O)C4CC(NCCCCC)CCC4(C)C3CCC12C.Cl (centres unmarked) [Compound 115]
Jurkat clone E6.1 cells; 20 μM
  Calcium (% inhibition at 20 μM): 40.0%

## CC(=O)O.CC=C1CCC2C3C(O)C(O)C4CC(NC5CCCC5)CCC4(C)C3CCC12C (centres unmarked) [Compound 116]
Jurkat clone E6.1 cells; 20 μM
  Calcium (% inhibition at 20 μM): 60.9%

## CC=C1CCC2C3C(O)C(O)C4CC(NCCNCCC)CCC4(C)C3CCC12C (centres unmarked) [Compound 119]
[2]; inhibition of antigen (DNP-HSA)-induced hexosaminidase release
  IC50: 6.1 µM

## CC=C1CCC2C3C(O)C(O)C4CC(NCCN(C)C)CCC4(C)C3CCC12C.Cl.Cl (centres unmarked) [Compound 120]
Jurkat clone E6.1 cells; 20 μM
  Calcium (% inhibition at 20 μM): 44.0%

## CC=C1CCC2C3C(O)C(O)C4CC(NCCNCCO)CCC4(C)C3CCC12C.Cl.Cl (centres unmarked) [Compound 124]
Jurkat clone E6.1 cells; 20 μM
  Calcium (% inhibition at 20 μM): 21.0%
[1]; 1 mg/kg/day for 4 days
  % inhibition of eosinophils: −55%
  % inhibition of lymphocytes: −26%
  % inhibition of neutrophils: −76%

## CC=C1CCC2C3C(O)C(O)C4CC(Nc5cccc(C)c5)CCC4(C)C3CCC12C.Cl (centres unmarked) [Compound 125]
Jurkat clone E6.1 cells; 20 μM
  Calcium (% inhibition at 20 μM): 5.7%

## CC=C1CCC2C3C(O)C(O)C4CC(Nc5ccc(O)cc5)CCC4(C)C3CCC12C.Cl (centres unmarked) [Compound 126]
Jurkat clone E6.1 cells; 20 μM
  Calcium (% inhibition at 20 μM): 45.0%

## C=C1CCC2C3C(CC[C@]12C)[C@@]1(C)CC[C@@H](NC(C)=O)CC1[C@@H](O)[C@@H]3O (some centres unmarked) [Compound 131]
[2]; [4]
  IC50: 14.1 µM
Jurkat clone E6.1 cells; [5]
  inhibition at 20 µM: 9.9%

## C=C1CCC2C3C(CC[C@]12C)[C@@]1(C)CC[C@@H](NS(=O)(=O)C(C)C)CC1[C@@H](O)[C@@H]3O (some centres unmarked) [Compound 133]
[1]; 1 mg/kg/day for 4 days
  % inhibition of eosinophils: −43%
  % inhibition of lymphocytes: 28%
  % inhibition of neutrophils: 40%

## C=C1CCC2C3C(CC[C@]12C)[C@@]1(C)CC[C@@H](NC(=O)Nc2ccccc2)CC1[C@@H](O)[C@@H]3O (some centres unmarked) [Compound 137]
[2]; [4]
  IC50: 14.8 µM
Jurkat clone E6.1 cells; [5]
  inhibition at 20 µM: 13%

## C=C1CCC2C3C(CC[C@]12C)[C@@]1(C)CC[C@@H](NC(=O)NCCC)CC1[C@@H](O)[C@@H]3O (some centres unmarked) [Compound 138]
Jurkat clone E6.1 cells; 20 μM
  Calcium (% inhibition at 20 μM): 9.0%
[1]; 1 mg/kg/day for 4 days
  % inhibition of eosinophils: −52%
  % inhibition of lymphocytes: 33%
  % inhibition of neutrophils: 35%

## COc1ccc(CNC2CCC3(C)C(C2)C(O)C(O)C2C4=C(CCC23)C(C)(C)CC4)cc1OC.Cl (centres unmarked) [Compound 142]
[1]; 1 mg/kg/day for 4 days
  % inhibition of lymphocytes: −42%
  % inhibition of neutrophils: −1%

## CCC1(C)CCC2=C1CCC1C2C(O)C(O)C2CC(NCc3ccccc3)CCC21C.Cl (centres unmarked) [Compound 146]
[1]; 1 mg/kg/day for 4 days
  % inhibition of eosinophils: 8%
  % inhibition of lymphocytes: −27%
  % inhibition of neutrophils: 24%

## CCC1(C)CCC2=C1CCC1C2C(O)C(O)C2CC(NCc3ccccc3)CCC21C.Cl (centres unmarked) [Compound 147]
[1]; 1 mg/kg/day for 4 days
  % inhibition of eosinophils: 40%
  % inhibition of lymphocytes: 36%
  % inhibition of neutrophils: 58%

## COC1C(OC)C2CC(N)CCC2(C)C2CCC3=C(CCC3(C)C)C12.Cl (centres unmarked) [Compound 148]
Jurkat clone E6.1 cells; 20 μM
  Calcium (% inhibition at 20 μM): 6.6%

Source: patent US20040034216A1, “3-Nitrogen-6,7-dioxygen steroids and uses related thereto” (priority 2003, published 2004)
